Laboratory results from US5510379A, “Sulfonate ACAT inhibitors” (priority 1994, dated 1996).
Read-outs that look alike come from different tables or passages of the source.

Experiments:
[1] = biological target: T1, acyl-CoA: cholesterol acyltransferase (ACAT) (Rattus norvegicus, UniProt Q7TQM4); assay: in vitro ACAT inhibition test in rat liver microsomes (LAI); type: biochemical
T1 construct: tissue preparation containing rat liver microsomes; from tissue; host or cells: rat liver microsomes
T1 sequence (Q7TQM4 1-524): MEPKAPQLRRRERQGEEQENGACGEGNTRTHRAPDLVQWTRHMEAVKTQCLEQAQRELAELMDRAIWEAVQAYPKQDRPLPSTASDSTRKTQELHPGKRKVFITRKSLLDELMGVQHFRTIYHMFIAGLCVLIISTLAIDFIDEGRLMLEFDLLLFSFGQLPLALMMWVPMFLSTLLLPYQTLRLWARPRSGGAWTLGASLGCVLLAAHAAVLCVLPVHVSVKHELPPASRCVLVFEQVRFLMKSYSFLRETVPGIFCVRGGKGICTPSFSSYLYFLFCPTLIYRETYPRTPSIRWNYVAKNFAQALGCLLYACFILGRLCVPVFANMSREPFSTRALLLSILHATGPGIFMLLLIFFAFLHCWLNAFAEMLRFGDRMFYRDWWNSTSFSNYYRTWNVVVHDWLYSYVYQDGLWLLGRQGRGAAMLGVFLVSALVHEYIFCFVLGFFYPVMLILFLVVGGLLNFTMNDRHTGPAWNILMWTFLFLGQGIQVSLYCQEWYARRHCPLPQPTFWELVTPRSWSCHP
Procedure: The ability of representative compounds of the present invention to inhibit ACAT was measured using an in vitro test more fully described in F.J. Field and R.G. Salone, Biochemica et Biophysica Acta, 772:557-570 (1982). The test assesses the ability of a test compound to inhibit the acylation of cholesterol by oleic acid by measuring the amount of radiolabeled cholesterol oleate formed from radiolabeled oleic acid in a tissue preparation containing rat liver microsomes (designated LAI).

[2] = tested on: male Sprague-Dawley rats; assay: in vivo screen APCC in cholesterol-fed rats; conditions: Rattus norvegicus, po, 30 mg/kg by gavage, high fat, high cholesterol diet overnight, versus vehicle and diet only, read-out: APCC percent change in total cholesterol (%TC) from control animals
Text: In an in vivo screen designated APCC, male Sprague-Dawley rats (200-225 g body weight) were randomly divided into treatment groups and dosed at 4 PM with either vehicle (CMC/Tween) or suspensions of invention compounds in vehicle. The normal chow diet was then replaced with a high fat, high cholesterol diet (5.5% peanut oil, 1.5% cholesterol, and 0.5% cholic acid). The rats consumed this diet ad libitum during the night and were sacrificed at 8 AM to obtain blood samples for cholesterol analysis using standard procedures. Statistical differences between mean cholesterol values for the same vehicle were determined using analysis of variance followed by Fisher's least significant test. The results of this trial for representative compounds of the present invention also appear in Table I as the percent change in total cholesterol (%TC) from control animals given vehicle and diet only. All compounds in the APCC test reported in Table 1 were administered by gavage at 30 mg/kg.

[3] = rat liver microsomes, formation of radiolabeled cholesterol oleate from radiolabeled oleic acid, read-out: LAI IC50

Compound | IC50 [1, 3] | change in vivo at 30 mg/kg [2] | IC50 [1]
CCCCCCCCCCCCNC(=O)CS(=O)(=O)Oc1c(C(C)C)cccc1C(C)C [Example 3, 2,6-Diisopropylphenyl N-dodecyl carbamoylmethyl sulfonate] | 3000 nM | -3% | 
CC(C)c1cccc(C(C)C)c1NC(=O)CS(=O)(=O)Oc1c(C(C)C)cccc1C(C)C [Example 10, 2.6-Diisopropylphenyl N-(2,6-diisopropylphenyl)carbamoylmethylsulfonate] | 27 nM | -42% | 
CC(C)c1cccc(C(C)C)c1OC(=O)CS(=O)(=O)Oc1c(C(C)C)cccc1C(C)C [Example 8, 2,6-Diisopropylphenyl (2,6-diisopropylphenoxycarbonyl)methylsulfonate] | 1500 nM | -21% | 
CSc1ccc(CN(C(=O)CS(=O)(=O)Oc2c(C(C)C)cc(C(C)C)cc2C(C)C)C(C)C)cc1 [Example 7, 2,4,6-Triisopropylphenyl N-isopropyl-N-(4-thiomethylphenylmethyl)carbamoylmethyl sulfonate] | 3600 nM | -17% | 
CC(C)c1cc(C(C)C)c(NC(=O)CS(=O)(=O)Oc2c(C(C)C)cccc2C(C)C)c(C(C)C)c1 [Example 6] | 1660 nM | -31% | 
CC(C)c1cccc(C(C)C)c1OS(=O)(=O)CC(=O)O [Example 5, 2,6-Diisopropylphenoxysulfonyl acetic acid] |  | -31% | > 50000 nM
CC(C)c1cc(C(C)C)c(OS(=O)(=O)CC(=O)Nc2c(C(C)C)cccc2C(C)C)c(C(C)C)c1 [Example 9] | 7 nM | -61% | 

Continued, in another order:

IC50 [1, 3] | Compound | change in vivo at 30 mg/kg [2] | IC50 [1]
1800 nM | CC(C)c1cccc(C(C)C)c1OS(=O)(=O)CC(=O)NC(c1ccccc1)c1ccccc1 [Example 4, 2,6-Diisopropylphenyl N-diphenylmethylcarbamoylmethyl sulfonate] | -43% | 
> 5000 nM | CC(C)c1cc(C(C)C)c(OS(=O)(=O)CC(=O)N(Cc2ccccc2)Cc2ccccc2)c(C(C)C)c1 [Example 1, 2,4,6-Triisopropylphenyl N,N-dibenzylcarbamoylmethylsulfonate] | -7% | 
790 nM | CC(C)c1cc(C(C)C)c(OS(=O)(=O)CC(=O)NC(c2ccccc2)c2ccccc2)c(C(C)C)c1 [Example 2, 2,4,6-Triisopropylphenyl N-diphenylmethylcarbamoylmethyl sulfonate] | -19% | 
